Measured values from paper PMC6199744, “Development of Chemical Proteomics for the Folateome and Analysis of the Kinetoplastid Folateome” (ACS Infectious Diseases, 2018).
Where two headings read alike, the source gives them in different places.

Key:
Assay type in all cases: binding
[1] = molecular target: T1, HeLa cell extract proteins (Homo sapiens, UniProt O00410)
T1 construct: endogenous in cells; host or cells: HeLa cell extract
T1 sequence (O00410 1-1097): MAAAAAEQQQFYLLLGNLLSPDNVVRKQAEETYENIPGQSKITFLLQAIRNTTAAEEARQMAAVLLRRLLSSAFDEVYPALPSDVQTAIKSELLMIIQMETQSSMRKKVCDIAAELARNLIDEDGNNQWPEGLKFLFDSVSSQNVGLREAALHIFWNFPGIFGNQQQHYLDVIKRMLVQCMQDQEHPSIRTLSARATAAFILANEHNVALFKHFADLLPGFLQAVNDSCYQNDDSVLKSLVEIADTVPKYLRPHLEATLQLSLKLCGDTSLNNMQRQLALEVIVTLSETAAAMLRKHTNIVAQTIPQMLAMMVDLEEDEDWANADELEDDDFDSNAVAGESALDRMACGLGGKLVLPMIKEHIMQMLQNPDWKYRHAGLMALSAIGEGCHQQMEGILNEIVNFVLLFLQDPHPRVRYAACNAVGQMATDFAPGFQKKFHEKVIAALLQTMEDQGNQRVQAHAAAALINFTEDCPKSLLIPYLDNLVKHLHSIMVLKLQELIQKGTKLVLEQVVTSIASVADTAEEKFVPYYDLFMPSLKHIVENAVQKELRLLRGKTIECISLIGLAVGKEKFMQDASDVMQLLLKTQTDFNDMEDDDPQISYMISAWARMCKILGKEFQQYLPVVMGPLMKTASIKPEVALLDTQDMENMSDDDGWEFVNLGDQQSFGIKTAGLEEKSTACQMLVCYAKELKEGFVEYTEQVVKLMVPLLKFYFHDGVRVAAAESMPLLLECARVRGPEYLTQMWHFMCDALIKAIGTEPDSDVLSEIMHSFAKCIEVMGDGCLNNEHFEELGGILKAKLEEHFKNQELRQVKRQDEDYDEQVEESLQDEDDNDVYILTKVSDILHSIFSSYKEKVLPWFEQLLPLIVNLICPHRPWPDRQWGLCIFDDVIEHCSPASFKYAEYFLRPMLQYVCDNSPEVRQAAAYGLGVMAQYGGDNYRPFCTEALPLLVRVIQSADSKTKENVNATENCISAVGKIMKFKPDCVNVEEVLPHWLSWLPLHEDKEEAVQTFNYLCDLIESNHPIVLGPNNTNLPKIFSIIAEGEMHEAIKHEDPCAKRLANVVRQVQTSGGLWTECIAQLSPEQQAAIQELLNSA

[2] = molecular target: T2, HeLa cell extract proteins (Homo sapiens, UniProt O43242)
T2 construct: endogenous in cells; host or cells: HeLa cell extract
T2 sequence (O43242 whole entry): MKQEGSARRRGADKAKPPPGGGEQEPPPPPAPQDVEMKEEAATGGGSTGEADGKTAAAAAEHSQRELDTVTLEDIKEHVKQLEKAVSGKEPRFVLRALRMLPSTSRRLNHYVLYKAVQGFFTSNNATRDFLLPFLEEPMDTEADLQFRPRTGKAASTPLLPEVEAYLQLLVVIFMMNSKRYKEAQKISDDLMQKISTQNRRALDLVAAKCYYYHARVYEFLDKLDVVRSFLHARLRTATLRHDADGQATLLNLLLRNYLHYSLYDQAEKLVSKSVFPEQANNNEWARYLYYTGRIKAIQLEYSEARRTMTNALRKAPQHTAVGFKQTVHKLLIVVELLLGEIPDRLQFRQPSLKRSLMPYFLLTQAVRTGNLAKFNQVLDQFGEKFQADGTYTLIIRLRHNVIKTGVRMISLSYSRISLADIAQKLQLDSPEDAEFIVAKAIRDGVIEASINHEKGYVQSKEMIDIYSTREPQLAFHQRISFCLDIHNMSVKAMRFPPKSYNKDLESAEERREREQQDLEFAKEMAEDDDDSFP

[3] = molecular target: T3, HeLa cell extract proteins (Homo sapiens, UniProt P15121)
T3 construct: endogenous in cells; host or cells: HeLa cell extract

[4] = molecular target: T4, HeLa cell extract proteins (Homo sapiens, UniProt P35080)
T4 construct: endogenous in cells; host or cells: HeLa cell extract
T4 sequence (P35080 1-140): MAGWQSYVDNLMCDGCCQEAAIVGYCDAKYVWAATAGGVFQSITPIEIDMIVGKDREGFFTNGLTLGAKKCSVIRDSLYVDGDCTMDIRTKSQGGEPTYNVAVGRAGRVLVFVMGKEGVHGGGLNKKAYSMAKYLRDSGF

[5] = molecular target: T5, HeLa cell extract proteins (Homo sapiens, UniProt P63244)
T5 construct: endogenous in cells; host or cells: HeLa cell extract

[6] = molecular target: T6, HeLa cell extract proteins (Homo sapiens, UniProt Q01813)
T6 construct: endogenous in cells; host or cells: HeLa cell extract
T6 sequence (Q01813 1-784): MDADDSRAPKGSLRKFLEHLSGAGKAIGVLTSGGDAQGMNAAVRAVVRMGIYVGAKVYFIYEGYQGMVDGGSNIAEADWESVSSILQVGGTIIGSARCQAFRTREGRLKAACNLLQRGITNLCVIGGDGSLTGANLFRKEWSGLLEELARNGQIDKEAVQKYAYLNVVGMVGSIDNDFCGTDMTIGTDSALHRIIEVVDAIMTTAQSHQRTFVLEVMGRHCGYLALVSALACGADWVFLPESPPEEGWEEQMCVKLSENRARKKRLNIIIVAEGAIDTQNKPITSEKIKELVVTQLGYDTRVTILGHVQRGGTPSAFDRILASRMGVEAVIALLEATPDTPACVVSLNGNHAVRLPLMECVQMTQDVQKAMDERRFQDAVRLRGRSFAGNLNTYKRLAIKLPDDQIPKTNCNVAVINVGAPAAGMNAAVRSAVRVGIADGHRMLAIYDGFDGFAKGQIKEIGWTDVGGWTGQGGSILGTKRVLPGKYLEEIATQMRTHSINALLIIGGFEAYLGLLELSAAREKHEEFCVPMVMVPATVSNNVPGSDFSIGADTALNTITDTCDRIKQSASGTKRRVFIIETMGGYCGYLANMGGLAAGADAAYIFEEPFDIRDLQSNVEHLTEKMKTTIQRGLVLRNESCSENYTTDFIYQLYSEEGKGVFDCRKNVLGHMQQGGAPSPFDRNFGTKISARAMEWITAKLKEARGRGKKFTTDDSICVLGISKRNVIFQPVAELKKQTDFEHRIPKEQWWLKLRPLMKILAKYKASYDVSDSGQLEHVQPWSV

[7] = molecular target: T7, HeLa cell extract proteins (Homo sapiens, UniProt Q13085)
T7 construct: endogenous in cells; host or cells: HeLa cell extract

[8] = molecular target: T8, HeLa cell extract proteins (Homo sapiens, UniProt Q5R3I4)
T8 construct: endogenous in cells; host or cells: HeLa cell extract
T8 sequence (Q5R3I4 whole entry): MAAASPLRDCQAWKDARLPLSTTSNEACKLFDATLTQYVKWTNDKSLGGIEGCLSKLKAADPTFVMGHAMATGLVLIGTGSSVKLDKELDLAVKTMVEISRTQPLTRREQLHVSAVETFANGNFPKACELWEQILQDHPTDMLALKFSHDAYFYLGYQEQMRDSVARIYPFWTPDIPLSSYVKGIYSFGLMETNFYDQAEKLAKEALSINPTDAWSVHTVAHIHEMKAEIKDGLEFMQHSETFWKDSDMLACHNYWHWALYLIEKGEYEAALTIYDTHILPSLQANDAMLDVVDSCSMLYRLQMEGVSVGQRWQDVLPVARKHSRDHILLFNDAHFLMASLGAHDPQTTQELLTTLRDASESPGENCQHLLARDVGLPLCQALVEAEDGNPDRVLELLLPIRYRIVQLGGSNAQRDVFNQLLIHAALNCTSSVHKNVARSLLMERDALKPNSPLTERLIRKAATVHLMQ

[9] = molecular target: T9, HeLa cell extract proteins (Homo sapiens, UniProt Q9H903)
T9 construct: endogenous in cells; host or cells: HeLa cell extract
T9 sequence (Q9H903 1-347): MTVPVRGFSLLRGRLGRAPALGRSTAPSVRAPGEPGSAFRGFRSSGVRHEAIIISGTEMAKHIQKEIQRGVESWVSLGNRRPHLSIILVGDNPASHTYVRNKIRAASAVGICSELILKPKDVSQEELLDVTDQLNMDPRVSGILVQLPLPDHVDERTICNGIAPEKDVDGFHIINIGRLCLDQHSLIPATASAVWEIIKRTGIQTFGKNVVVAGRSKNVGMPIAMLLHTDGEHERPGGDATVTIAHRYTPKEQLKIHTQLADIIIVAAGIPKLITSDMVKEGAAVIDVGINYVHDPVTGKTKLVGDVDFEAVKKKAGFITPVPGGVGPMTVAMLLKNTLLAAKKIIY

[10] = molecular target: T10, HeLa cell extract proteins (Homo sapiens, UniProt Q9NSI6)
T10 construct: endogenous in cells; host or cells: HeLa cell extract
T10 sequence (Q9NSI6 whole entry): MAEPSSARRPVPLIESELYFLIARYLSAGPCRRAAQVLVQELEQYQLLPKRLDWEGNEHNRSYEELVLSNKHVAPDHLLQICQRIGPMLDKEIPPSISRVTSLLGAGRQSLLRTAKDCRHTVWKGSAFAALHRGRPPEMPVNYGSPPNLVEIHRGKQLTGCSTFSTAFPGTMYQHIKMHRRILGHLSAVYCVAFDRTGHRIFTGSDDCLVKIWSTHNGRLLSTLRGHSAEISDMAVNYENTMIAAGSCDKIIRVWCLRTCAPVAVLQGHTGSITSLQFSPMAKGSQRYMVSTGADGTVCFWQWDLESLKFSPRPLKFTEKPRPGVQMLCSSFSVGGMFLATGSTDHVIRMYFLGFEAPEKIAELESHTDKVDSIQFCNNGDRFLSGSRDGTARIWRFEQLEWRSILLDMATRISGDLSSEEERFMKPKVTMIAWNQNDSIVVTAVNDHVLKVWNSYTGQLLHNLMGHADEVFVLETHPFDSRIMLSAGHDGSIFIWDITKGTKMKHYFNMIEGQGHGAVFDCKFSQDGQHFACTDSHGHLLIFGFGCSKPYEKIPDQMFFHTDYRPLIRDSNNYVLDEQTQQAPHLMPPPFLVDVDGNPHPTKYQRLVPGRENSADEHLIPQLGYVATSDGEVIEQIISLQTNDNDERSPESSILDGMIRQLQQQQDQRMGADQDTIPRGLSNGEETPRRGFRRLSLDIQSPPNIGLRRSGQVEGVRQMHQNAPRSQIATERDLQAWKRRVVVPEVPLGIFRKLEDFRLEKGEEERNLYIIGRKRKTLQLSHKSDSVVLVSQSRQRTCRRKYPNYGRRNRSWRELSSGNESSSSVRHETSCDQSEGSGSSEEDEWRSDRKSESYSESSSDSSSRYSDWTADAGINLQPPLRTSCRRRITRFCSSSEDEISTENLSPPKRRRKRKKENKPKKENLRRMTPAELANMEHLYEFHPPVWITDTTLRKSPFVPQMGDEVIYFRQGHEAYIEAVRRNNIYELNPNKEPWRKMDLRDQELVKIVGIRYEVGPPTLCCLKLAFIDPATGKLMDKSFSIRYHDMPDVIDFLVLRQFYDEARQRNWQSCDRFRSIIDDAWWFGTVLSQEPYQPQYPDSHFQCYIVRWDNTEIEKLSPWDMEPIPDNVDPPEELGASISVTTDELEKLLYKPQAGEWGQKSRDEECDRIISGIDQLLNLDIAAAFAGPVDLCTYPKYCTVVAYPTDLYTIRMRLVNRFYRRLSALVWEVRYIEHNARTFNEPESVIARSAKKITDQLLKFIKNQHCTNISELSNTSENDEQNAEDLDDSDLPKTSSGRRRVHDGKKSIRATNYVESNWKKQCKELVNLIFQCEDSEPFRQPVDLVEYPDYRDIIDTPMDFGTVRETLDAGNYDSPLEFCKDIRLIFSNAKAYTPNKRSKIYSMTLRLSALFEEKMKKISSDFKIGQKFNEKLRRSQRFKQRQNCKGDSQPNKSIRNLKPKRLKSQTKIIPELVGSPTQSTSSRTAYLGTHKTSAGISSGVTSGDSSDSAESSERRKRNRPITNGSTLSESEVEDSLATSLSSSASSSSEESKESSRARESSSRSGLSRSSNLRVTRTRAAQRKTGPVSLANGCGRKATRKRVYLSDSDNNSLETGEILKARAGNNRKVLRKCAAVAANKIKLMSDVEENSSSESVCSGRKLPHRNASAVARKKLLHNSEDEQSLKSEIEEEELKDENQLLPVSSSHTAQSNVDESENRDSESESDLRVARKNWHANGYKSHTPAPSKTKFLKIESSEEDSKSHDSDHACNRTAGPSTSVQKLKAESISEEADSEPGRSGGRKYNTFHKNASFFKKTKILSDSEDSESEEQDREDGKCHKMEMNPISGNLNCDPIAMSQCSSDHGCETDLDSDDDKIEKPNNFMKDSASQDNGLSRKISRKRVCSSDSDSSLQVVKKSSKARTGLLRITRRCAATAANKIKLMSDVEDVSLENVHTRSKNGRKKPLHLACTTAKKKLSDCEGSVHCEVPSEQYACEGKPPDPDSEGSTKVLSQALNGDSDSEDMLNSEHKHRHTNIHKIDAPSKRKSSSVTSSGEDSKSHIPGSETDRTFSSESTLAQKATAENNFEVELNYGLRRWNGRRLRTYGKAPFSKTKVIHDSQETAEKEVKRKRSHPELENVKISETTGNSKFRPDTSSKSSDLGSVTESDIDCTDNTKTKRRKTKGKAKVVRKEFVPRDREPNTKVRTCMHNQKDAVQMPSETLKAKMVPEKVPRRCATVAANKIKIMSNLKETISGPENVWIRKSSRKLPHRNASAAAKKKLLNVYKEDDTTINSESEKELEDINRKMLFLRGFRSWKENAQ

[11] = HeLa, protein TTC38 (HYPOTHETICAL PROTEIN LOC55020)

Row | Compound | fold changes relative to vehicle control ([1]; HeLa, protein IPO5) | fold changes relative to vehicle control ([2]; protein PSMD3, HeLa) | fold changes relative to vehicle control ([3]; HeLa, protein AKR1B1) | fold changes relative to vehicle control ([4]; HeLa, protein PFN2) | fold changes relative to vehicle control ([5]; HeLa, protein GNB2L1) | fold changes relative to vehicle control ([6]; HeLa, protein PFKP) | fold changes relative to vehicle control ([7]; HeLa, captured protein ACACA) | fold changes relative to vehicle control ([9]; HeLa, protein MTHFD2L) | fold changes relative to vehicle control ([10]; HeLa, protein BRWD1) | fold changes relative to vehicle control ([1]; protein IPO5, HeLa) | fold changes relative to vehicle control ([3]; protein AKR1B1, HeLa) | fold changes relative to vehicle control ([4]; protein PFN2, HeLa) | fold changes relative to vehicle control ([6]; captured protein PFKP, HeLa) | fold changes relative to vehicle control ([7]; protein ACACA, HeLa) | fold changes relative to vehicle control ([8]; HeLa, protein TTC38) | fold changes relative to vehicle control ([10]; captured protein BRWD1, HeLa) | other results
1 | Nc1nc2c(c(=O)[nH]1)N(C=O)C(CNc1ccc(C(=O)N[C@@H](CCC(=O)O)C(=O)O)cc1)CN2 (stereo partly shown) [LEU, leucovorin] | 0.93 | 1.08 | 1.1 | 1.07 | 1.08 | 0.88 | 1.02 | 0.9 | 0.93 | – | – | – | – | – | – | – | fold changes relative to vehicle control ([8]; HeLa, protein TTC38 (HY[…] LOC55020)): 1.03
2 | Nc1nc2[nH]cc(CCc3ccc(C(=O)N[C@@H](CCC(=O)O)C(=O)O)cc3)c2c(=O)[nH]1 [PTX, pemetrexed] | – | – | – | – | – | – | – | – | – | – | – | – | – | – | – | – | fold changes relative to vehicle control [1]: 0.91; fold changes relative to vehicle control [2]: 1.1; fold changes relative to vehicle control [3]: 1.22; fold changes relative to vehicle control [4]: 1.01; fold changes relative to vehicle control [5]: 1.08; fold changes relative to vehicle control [6]: 0.9; fold changes relative to vehicle control [7]: 1.05; fold changes relative to vehicle control [8]: 0.93; fold changes relative to vehicle control [9]: 0.9; fold changes relative to vehicle control [10]: 1.07
3 | CCCCCCOc1ccc(Cc2cnc(N)nc2N)cc1 [compound 1] | – | 1.21 | – | – | 1.12 | – | – | 0.3 | – | 0.99 | 1.12 | 1.23 | 1.05 | 1.09 | 1 | 1.01 | –
4 | CCCCCCOc1cccc(Cc2cnc(N)nc2N)c1 [compound 2] | – | 1.51 | – | – | 1.19 | – | – | 0.89 | – | 1.27 | 1.7 | 0.99 | 1.01 | 1.06 | 0.68 | 1.03 | –
5 | Nc1nc2cccc(-c3ccccc3)c2n1Cc1ccc(Cl)c(Cl)c1 [compound 3] | – | 1.1 | – | – | 1.12 | – | – | 1.07 | – | 1.03 | 0.8 | 1.1 | 1.02 | 1.04 | 1 | 0.9 | –
6 | NCCOCCOCC(=O)Nc1nc2ncc(CNc3ccc(C(=O)NC(CCC(=O)O)C(=O)O)cc3)nc2c(=O)[nH]1 (stereo not shown) [compound 6] | 0.99 | 1.17 | 1.2 | 1.06 | 1.12 | 0.95 | 1.12 | 0.97 | 1.05 | – | – | – | – | – | – | – | fold changes relative to vehicle control [8, 11]: 0.89
7 | NCCCNc1ccc(C(=O)NC(CCC(=O)O)C(=O)O)cc1 (stereo not shown) [compound 7] | 0.94 | 1.02 | 0.95 | 1.15 | 0.99 | 0.93 | 1.17 | 1 | 0.92 | – | – | – | – | – | – | – | fold changes relative to vehicle control [8, 11]: 0.99
